Some results are limits rather than exact numbers.

T1 sequence (P28845 whole entry): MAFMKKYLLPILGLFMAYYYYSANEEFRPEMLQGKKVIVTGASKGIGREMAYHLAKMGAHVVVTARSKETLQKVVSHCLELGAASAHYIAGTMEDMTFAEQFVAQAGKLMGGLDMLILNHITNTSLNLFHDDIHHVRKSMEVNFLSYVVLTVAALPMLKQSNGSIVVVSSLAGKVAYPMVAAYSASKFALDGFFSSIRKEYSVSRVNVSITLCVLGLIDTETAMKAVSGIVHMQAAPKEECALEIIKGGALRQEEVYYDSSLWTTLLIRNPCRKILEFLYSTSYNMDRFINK

The assay addresses T1, human full length HSD11β1 (Homo sapiens, UniProt P28845).
T1 construct: transient expression of human full length HSD11β1 expression vector; host or cells: CHO cells, transient transfection
Briefly: In Vitro HSD11β1 Inhibition Assay. It counts as cell-based. The note with it: CHO cells transiently expressing human HSD11β1; 200 nM cortisone+500 uM NADPH overnight; cortisone to cortisol by LC/MS-MS; read-out: 11βHSD1 (IC50). The method, then:
In Vitro HSD11β1 Inhibition Assay:
CHO cells were maintained in Dulbecco's modified Eagle's medium/nutrient mixture F-12 containing 5% fetal bovine serum (v/v) and 2 mM glutamine. Cells were cultured at 37° C. with 5% CO2. For transient expression of human full length HSD11β1 expression vector (OriGene Technologies), cells were seeded at a density of 2×10^5 cells/well in a 6-well plate. Transfection was done using Turbofectin8 reagent (OriGene Technologies), according to the protocol provided with the reagent. After 24 hours post-transfection, cells were trypsinized and pooled together before they were re-seeding to 96-well plate at a density of 40000 cells/well. 24 hours after re-seeding, cells were incubated with 200 nM cortisone+500 uM NADPH (or along with small molecule inhibitors) overnight. The enzymatic activity or inhibition of enzyme activity was measured by estimating the conversion of cortisone to cortisol by LC/MS-MS method. The IC50 in nM was calculated from a 8 point log scale of concentration versus inhibition.
As to `CC(CC(=O)N1C2CC3(O)CC1CC(O)(C2)C3)c1c[nH]c2ccc(Cl)c(C3CC3)c12` (centres unmarked) [Compound 163, 3-(5-chloro-4-cyclopropyl-1H-indol-3-yl)-1-(5,7-dihydroxy-2-azatricyclo[3.3.1.1^3,7]dec-2-yl)butan-1-one], the IC50 was greater than 250 nM.
As to `CC(C)Oc1cccc2[nH]cc(C(C)CC(=O)N3C4CC5CC3CC(F)(C5)C4)c12` (single isomer, unassigned) [Compound 185, 1-(5-fluoro-2-azatricyclo[3.3.1.1^3,7]dec-2-yl)-3-[4-(propan-2-yloxy)-1H-indol-3-yl]butan-1-one], the IC50 was greater than 250 nM.
For `O=C(CC(c1ccccc1)c1c[nH]c2cccc(F)c12)N1C2CC3CC1CC(C(=O)O)(C3)C2` (centres unmarked) [Compound 111, 2-[3-(4-fluoro-1H-indol-3-yl)-3-phenylpropanoyl]-2-azatricyclo[3.3.1.1^3,7]decane-5-carboxylic acid] the value was greater than 250 nM; for `Cc1ccc2[nH]cc(C(C)CC(=O)N3C4CC5CC3CC(F)(C5)C4)c2c1C` (centres unmarked) [Compound 176, 3-(4,5-dimethyl-1H-indol-3-yl)-1-(5-fluoro-2-azatricyclo[3.3.1.1^3,7]dec-2-yl)butan-1-one], greater than 250 nM.
For the compound `CC(CC(=O)N1C2CC3CC1CC(O)(C3)C2)c1c[nH]c2cccc(F)c12` (single isomer, unassigned) [Example 28, 3-(4-fluoro-1H-indol-3-yl)-1-(5-hydroxy-2-azatricyclo[3.3.1.1^3,7]dec-2-yl)butan-1-one], the IC50 was in the range of 200 to 250 nM.
For the compound `CC(CC(=O)N1C2CC3CC1CC(O)(C3)C2)c1cn(S(C)(=O)=O)c2cccc(Cl)c12` (centres unmarked) [Example 46, 3-[4-chloro-1-(methylsulfonyl)-1H-indol-3-yl]-1-(5-hydroxy-2-azatricyclo[3.3.1.1^3,7]dec-2-yl)butan-1-one], the IC50 is greater than 250 nM.
For `COc1ccc2[nH]cc(C(C)CC(=O)N3C4CC5CC3CC(C#N)(C5)C4)c2c1` (centres unmarked) [Compound 230, 2-(3-(5-methoxy-1H-indol-3-yl)butanoyl)-2-azaadamantane-5-carbonitrile] the value was greater than 250 nM.
For `CC(CC(=O)N1C2CC3CC1CC(O)(C3)C2)c1c[nH]c2cccc(Oc3ccc(Cl)cc3)c12` (centres unmarked) [Example 44, 3-[4-(4-chlorophenoxy)-1H-indol-3-yl]-1-(5-hydroxy-2-azatricyclo[3.3.1.1^3,7]dec-2-yl)butan-1-one] the value was 200 to 250 nM.
For `CC(C)Oc1cccc2[nH]cc(C(C)CC(=O)N3C4CC5CC3CC(F)(C5)C4)c12` (centres unmarked) [Compound 182, 1-(5-fluoro-2-azatricyclo[3.3.1.1^3,7]dec-2-yl)-3-[4-(propan-2-yloxy)-1H-indol-3-yl]butan-1-one] the value was 150 to 200 nM.
`CC(CC(=O)N1C2CC3CC1CC(C(=O)O)(C3)C2)c1c[nH]c2cccc(-c3ccco3)c12` (centres unmarked) [Compound 222, 2-(3-(4-(furan-2-yl)-1H-indol-3-yl)butanoyl)-2-azaadamantane-5-carboxylic acid]: the IC50 is greater than 250 nM.
On to `CC(CC(=O)N1C2CC3CC1CC(O)(C3)C2)c1c[nH]c2ccc(Cl)c(Cl)c12` (centres unmarked) [Compound 168, 3-(4,5-dichloro-1H-indol-3-yl)-1-(5-hydroxy-2-azatricyclo[3.3.1.1^3,7]dec-2-yl)butan-1-one], for which the IC50 is less than 100 nM.
For `CC(CC(=O)N1C2CC3CC1CC(O)(C3)C2)c1nc2ccc(Cl)cc2s1` (single isomer, unassigned) [Compound 195, 3-(6-chloro-1,3-benzothiazol-2-yl)-1-(5-hydroxy-2-azatricyclo[3.3.1.1^3,7]dec-2-yl)butan-1-one] the value was greater than 250 nM; for `CC(C)C(CC(=O)N1C2CC3CC1CC(O)(C3)C2)c1c[nH]c2ccccc12` (centres unmarked) [Example 23, 1-(5-hydroxy-2-azatricyclo[3.3.1.1^3,7]dec-2-yl)-3-(1H-indol-3-yl)-4-methylpentan-1-one], greater than 250 nM; for `O=C(CCc1c[nH]c2ccc(F)cc12)N1C2CC3CC(C2)CC1C3` [Example 7, 1-(2-azatricyclo[3.3.1.1^3,7]dec-2-yl)-3-(5-fluoro-1H-indol-3-yl)propan-1-one], greater than 250 nM.
Consider `CC(CC(=O)N1C2CC3CC1CC(C(N)=O)(C3)C2)c1c[nH]c2cccc(Cl)c12` (centres unmarked) [Example 47, 2-[3-(4-chloro-1H-indol-3-yl)butanoyl]-2-azatricyclo[3.3.1.1^3,7]decane-5-carboxamide], for which the IC50 lay within 150 to 200 nM.
For `Cc1cccc2c1c(C(C)CC(=O)N1C3CC4CC1CC(O)(C4)C3)cn2C` (centres unmarked) [Compound 206, 3-(1,4-dimethyl-1H-indol-3-yl)-1-(5-hydroxy-2-azatricyclo[3.3.1.1^3,7]dec-2-yl)butan-1-one] the value was greater than 250 nM; for `Cc1cccc2c1c(C(C)CC(=O)N1C3CC4CC1CC(O)(C4)C3)cn2S(=O)(=O)c1cccc2cccnc12` (centres unmarked) [Compound 216, 1-(5-hydroxy-2-azaadamantan-2-yl)-3-(4-methyl-1-(quinolin-8-ylsulfonyl)-1H-indol-3-yl)butan-1-one], greater than 250 nM; for `CC(CC(=O)N1C2CC3CC1CC(c1nnn[nH]1)(C3)C2)c1c[nH]c2cccc(Cl)c12` (centres unmarked) [Compound 76, 3-(4-chloro-1H-indol-3-yl)-1-[5-(1H-tetrazol-5-yl)-2-azatricyclo[3.3.1.1^3,7]dec-2-yl]butan-1-one], greater than 250 nM.
For `CC(CC(=O)N1C2CC3CC1CC(O)(C3)C2)c1c[nH]c2cc(F)ccc12` (centres unmarked) [Compound 79, 3-(6-fluoro-1H-indol-3-yl)-1-(5-hydroxy-2-azatricyclo[3.3.1.1^3,7]dec-2-yl)butan-1-one] the value was 100 to 150 nM; for `Cc1ccc2[nH]cc(C(C)CC(=O)N3C4CC5CC3CC(O)(C5)C4)c2c1Cl` (single isomer, unassigned) [Compound 174, 3-(4-chloro-5-methyl-1H-indol-3-yl)-1-(5-hydroxy-2-azatricyclo[3.3.1.1^3,7]dec-2-yl)butan-1-one], greater than 250 nM.
For the compound `Cc1c(F)ccc2[nH]cc(C(C)CC(=O)N3C4CC5CC3CC(O)(C5)C4)c12` (single isomer, unassigned) [Compound 147, 3-(5-fluoro-4-methyl-1H-indol-3-yl)-1-(5-hydroxy-2-azatricyclo[3.3.1.1^3,7]dec-2-yl)butan-1-one], the IC50 lay in the range of 100 to 150 nM.
Take `COc1cc2c(C(C)CC(=O)N3C4CC5CC3CC(O)(C5)C4)c[nH]c2cc1Cl` (single isomer, unassigned) [Compound 129, 3-(6-chloro-5-methoxy-1H-indol-3-yl)-1-(5-hydroxy-2-azatricyclo[3.3.1.1^3,7]dec-2-yl)butan-1-one]: the concentration for half-maximal inhibition (IC50) is greater than 250 nM.
`COc1c(C)ccc2[nH]cc(C(C)CC(=O)N3C4CC5CC3CC(O)(C5)C4)c12` (centres unmarked) [Compound 209, 1-(5-hydroxy-2-azatricyclo[3.3.1.1^3,7]dec-2-yl)-3-(4-methoxy-5-methyl-1H-indol-3-yl)butan-1-one]: the IC50 was 200 to 250 nM.
Regarding `COc1ccc2[nH]cc(C(C)CC(=O)N3C4CC5CC3CC(O)(C5)C4)c2c1C` (centres unmarked) [Compound 165, 1-(5-hydroxy-2-azatricyclo[3.3.1.1^3,7]dec-2-yl)-3-(5-methoxy-4-methyl-1H-indol-3-yl)butan-1-one], the IC50 was greater than 250 nM.
Turning to `CC(CC(=O)N1C2CC3CC1CC(C(=O)O)(C3)C2)c1c[nH]c2cccc(C3CC3)c12` (centres unmarked) [Example 51, 2-[3-(4-cyclopropyl-1H-indol-3-yl)butanoyl]-2-azatricyclo[3.3.1.1^3,7]decane-5-carboxylic acid], the IC50 is greater than 250 nM.
For `CC(CC(=O)N1C2CC3CC1CC(O)(C3)C2)c1nc2ccc(Cl)cc2s1` (single isomer, unassigned) [Compound 194, 3-(6-chloro-1,3-benzothiazol-2-yl)-1-(5-hydroxy-2-azatricyclo[3.3.1.1^3,7]dec-2-yl)butan-1-one] the value was less than 100 nM; for `CC(CC(=O)N1C2CC3CC1CC(C(=O)NCc1ccc(C(=O)O)cc1)(C3)C2)c1c[nH]c2cccc(C3CC3)c12` (centres unmarked) [Example 63, 4-{[({2-[3-(4-cyclopropyl-1H-indol-3-yl)butanoyl]-2-azatricyclo[3.3.1.1^3,7]dec-5-yl}carbonyl)amino]methyl}benzoic acid], greater than 250 nM; for `CC(CC(=O)N1C2CC3CC1CC(C#N)(C3)C2)c1nc2c(Cl)cccc2s1` (single isomer, unassigned) [Compound 124, 2-[3-(4-chloro-1,3-benzothiazol-2-yl)butanoyl]-2-azatricyclo[3.3.1.1^3,7]decane-5-carbonitrile], greater than 250 nM.
`CCCc1cccc2[nH]cc(CCC(=O)N3C4CC5CC3CC(O)(C5)C4)c12` [Compound 128, 1-(5-hydroxy-2-azatricyclo[3.3.1.1^3,7]dec-2-yl)-3-(4-propyl-1H-indol-3-yl)propan-1-one]: the IC50 is greater than 250 nM.
As to `CC(CC(=O)N1C2CC3CC1CC(O)(C3)C2)c1c(C#N)[nH]c2cccc(C3CC3)c12` (centres unmarked) [Compound 220, 4-cyclopropyl-3-(4-(5-hydroxy-2-azaadamantan-2-yl)-4-oxobutan-2-yl)-1H-indole-2-carbonitrile], the IC50 was greater than 250 nM.
The figure for `COC12CC3CC(C1)N(C(=O)CC(C)c1c[nH]c4ccccc14)C(C3)C2` (centres unmarked) [Example 34, 3-(1H-indol-3-yl)-1-(5-methoxy-2-azatricyclo[3.3.1.1^3,7]dec-2-yl)butan-1-one] is greater than 250 nM.
On to `CC(CC(=O)N1C2CC3CC1CC(Cl)(C3)C2)c1c[nH]c2cccc(F)c12` (centres unmarked) [Example 32, 1-(5-chloro-2-azatricyclo[3.3.1.1^3,7]dec-2-yl)-3-(4-fluoro-1H-indol-3-yl)butan-1-one], for which the IC50 was 150 to 200 nM.

The record behind these values is US9303016B2, “Derivatives of aza adamantane and uses thereof” (CONNEXIOS LIFE SCIENCES PVT. LTD., priority 2011, dated 2016).
